Test results as given in US4323550A, “Halogenohydrates of N,N-disubstituted derivatives of piperazine having anticariogenic properties” (priority 1976, dated 1982).

How the values were obtained:
[1] = Penetration of fluorine 18 into dental enamel after topical application (Muhlemann biopsy); set-up: species or system children
Text: The anticariogenic activity of the difluorohydrate of N,N'-di(hydroxy-ethyl) piperazine has been evidenced by comparison with sodium fluoride known for its cariopreventive topical properties. A comparative study has been made of the penetration into the dental enamel of the fluorine contained in the molecule according to the invention and of the fluorine contained in sodium fluoride.
For this comparison the difluorohydrate of N,N'-di(hydroxy-ethyl) piperazine was marked at the fluorine 18, by isotopic exchange by dissolving some crystals of the product according to the invention in a solution of pure fluorine 18 without entrainer. The same was done for the sodium fluoride.
The study of the penetration of the fluorine into the enamel was made on several teeth to compare the behavior of the product of the invention and of sodium fluoride in supplying fluorine and in the penetration of the latter into the deepest layers of the dental tissue.
The tests were performed on 30 premolar teeth taken from normal children 9 to 11 years old. Eighteen teeth were treated by topical application of the radioactive solutions of the difluoro-hydrate of N,N'-di(hydroxy-ethyl) piperazine or of NaF adjusted to pH=3.5; the other 12 were treated with the same solutions adjusted to a pH of 7.4.
The radioactive solutions are obtained by dissolving 69 mg of the difluorohydrate and 81.3 mg of NaF, respectively, in 1 and 3 ml of fluorine 18 solution without entrainer. Thus solutions titering 1.23% fluorine are obtained.
As the difluorohydrate solution is already at pH=3.5, it is sufficient to acidify the NaF solution by addition of about 0.2 ml hydrochloric acid 6 M, to 3 ml of the radioactive solution.
In this case, the difluorohydrate's nature of organic salt can be preserved and its solution neutralized at 1.23% of fluorine in 1 ml by addition of about 110 mg of its N,N'-di(hydroxyethyl) piperazine base.
For the experimentation one determines two enamel plagues on each tooth. For this, one applies on the crowns, separated from each other by 2 or 3 mm, two round disks of a diameter of 3 mm cut out from adhesive tape. The crown is then covered with a layer of impermeable varnish. When the varnish is dry, the patches of adhesive tape are removed, thus bearing the two zones of enamel to be treated.
The spot application of the fluorinated solution is done by means of a sponge imbibed with 0.5 ml of the solution. This sponge is inserted in a polyethylene tube to limit the surface of contact between tooth and sponge to the circumference of the enamel zone treated.
The sampling of the enamel is done by Muhlemann's biopsy technique: A patch of blotting paper impregnated with 4 microliters of perchloric acid 2 M is applied on the trated enamel for 30 seconds. The enamel is dried with a second patch of blotting paper. It is on these patches which contain the dissolved enamel that we measure the radioactivity.
There are given in Table I all the results relating to the acid treatment, in Table II all the results relating to the treatment at neutral pH. The fluorine values are those obtained by measuring the radioactivity of the samples.
The columns […] and N2 represent the mass of fluorine measured on the second biopsy.
We have marked R1 and R1 and R2 the ratios G1 /G2 and N1 /N2, and R3 the ratio. [formula] R1 and R2 permitting to compare the quantities of fluorine at the same depth. R3 permits comparing the accumulation of fluorine in the tooth.

Solubility = assay type: physicochemical
[2] = Acute oral toxicity in mice; assay type: in vivo; settings: in vivo, mouse, Lichfield and Wilcoxon
Description: (§1) By way of example there are described below the comparative tests made on difluorohydrate of N,N'-di(hydroxyethyl) piperazine and on fluorohydrate of hexadecylamine or "ELMEX 242".
(§2) The acute toxidity was studies in rats and in mice.
(§3) The animals came from a homogeneous breed. The mice weighed between 19 and 21 g and the rats weighed from 120 to 140 g. The mice were grouped in lots of 10 and the rats in lots of 8.
(§4) The administrations took place orally at a volume of 0.5 ml per 20 g of mouse and 1 ml per 100 g of rat. The LD50 was determined by the method of Lichfield and Wilcoxon.
(§5) As regards the difluorohydrate of N,N'-di(hydroxyethyl) piperazine, the administered solution was prepared by diluting the mother solution to 65.4%, the dilutions being made after having weighed this solution. The administered dose is expressed by weight, taking account of the indicated strength of this solution.
(§6) For the solid "ELMEX 242" an aqueous suspension was prepared with the aid of solubilizing agents (e.g. Tween-polyoxyethylene sorbitan monolaurate). A very thick suspension is then obtained which tends to foam heavily, is difficult to get into the esophageal sound, and the determination of its volume is rendered difficult by the foam.
(§7) The results obtained with the "ELMEX" are therefore rather approximate.

mice = test: Acute oral toxicity in mice; assay type: in vivo; settings: mouse
Description: as §1, §2, §3, §4, §5, §6, §7

rats = test: in vivo; assay type: in vivo; settings: rat, oral; for Deaths: D + 10, 8 per lot
Description: as §1, §2, §3, §4, §5, §6, §7

[F-].[Na+] [NaF, sodium fluoride, reference compound]
mean value of R2 ([1]; neutral medium, 12 teeth): 3.6 | average fluorine sampled in the two biopsies, acid pH compared with neutral pH ([1]; pH 3.5 versus pH 7.4): 3.6

OCCN1CCN(CCO)CC1 [DI-IODOHYDRATE OF N,N'-DI-(BETA-HYDROXY-ETHYL) PIPERAZINE]
solubility in water, in alcohols, glycols (Solubility): soluble

CCCCCCCCCCCCCCCCN [ELMEX 242, fluorohydrate of hexadecylamine]
LD50 at 240 h [2]: 1250 mg/kg | course: death and recovery (mice): Death occurs in a few hours; for others recovery is also fairly rapid. | symptoms (mice): The animals have diarrhea. The mice are totally immobile and tremble. | Deaths (mice; 600 mg/kg, D + 1, 10 per lot): 0 | Deaths (mice; 600 mg/kg, D + 2, 10 per lot): 0 | Deaths (mice; 600 mg/kg, D + 5, 10 per lot): 0 | Deaths (mice; 600 mg/kg, D + 10, 10 per lot): 0 | Deaths (mice; 800 mg/kg, D + 1, 10 per lot): 0 | Deaths (mice; 800 mg/kg, D + 2, 10 per lot): 0 | Deaths (mice; 800 mg/kg, D + 5, 10 per lot): 0 | Deaths (mice; 800 mg/kg, D + 10, 10 per lot): 0 | Deaths (mice; 1000 mg/kg, D + 1, 10 per lot): 1 | Deaths (mice; 1000 mg/kg, D + 2, 10 per lot): 2 | Deaths (mice; 1000 mg/kg, D + 5, 10 per lot): 2 | Deaths (mice; 1000 mg/kg, D + 10, 10 per lot): 2 | Deaths (mice; 1250 mg/kg, D + 1, 10 per lot): 1 | Deaths (mice; 1250 mg/kg, D + 2, 10 per lot): 2 | Deaths (mice; 1250 mg/kg, D + 5, 10 per lot): 3 | Deaths (mice; 1250 mg/kg, D + 10, 10 per lot): 3 | Deaths (mice; 1500 mg/kg, D + 1, 10 per lot): 4 | Deaths (mice; 1500 mg/kg, D + 2, 10 per lot): 7 | Deaths (mice; 1500 mg/kg, D + 5, 10 per lot): 9 | Deaths (mice; 1500 mg/kg, D + 10, 10 per lot): 9 | Deaths (mice; 1750 mg/kg, D + 1, 10 per lot): 3 | Deaths (mice; 1750 mg/kg, D + 2, 10 per lot): 4 | Deaths (mice; 1750 mg/kg, D + 5, 10 per lot): 9 | Deaths (mice; 1750 mg/kg, D + 10, 10 per lot): 9 | Deaths (mice; 2000 mg/kg, D + 1, 10 per lot): 9 | Deaths (mice; 2000 mg/kg, D + 2, 10 per lot): 10 | Deaths (mice; 2000 mg/kg, D + 5, 10 per lot): 10 | Deaths (mice; 2000 mg/kg, D + 10, 10 per lot): 10 | Deaths (mice; 2500 mg/kg, D + 1, 10 per lot): 10 | Deaths (mice; 2500 mg/kg, D + 2, 10 per lot): 10 | Deaths (mice; 2500 mg/kg, D + 5, 10 per lot): 10 | Deaths (mice; 2500 mg/kg, D + 10, 10 per lot): 10 | symptoms / behavior (rats): The behavior of the animals is normal. | Deaths (rats; 125 mg/kg): 0 | Deaths (rats; 150 mg/kg): 0 | Deaths (rats; 500 mg/kg): 0
